The record followed here is patent publication US8980920B2, “Antiviral compounds of three linked aryl moieties to treat diseases such as hepatitis C” (Merck Sharp & Dohme Corp., priority 2009, dated 2015).

One assay concerns HCV replicon 2a JFH. The experiment in a line: Cell-based HCV replicon assay, genotype 2a JFH. As to conditions: Hepatitis C virus, 72 h, replicon cells, replicon RNA by Taqman on day 3. On the procedure:
(§1) To measure cell-based anti-HCV activity of selected compounds of the present invention, the following replicon assay can be used.
(§2) Replicon cells are seeded at 5000 cells/well in 96-well collagen I-coated Nunc plates in the presence of the test compound. Various concentrations of test compound, typically in 10 serial 2-fold dilutions, are added to the assay mixture, with the starting concentration ranging from 10 μM to 0.001 μM. The final concentration of DMSO should be about 0.5%, and the final concentration of fetal bovine serum should be about 5%, in the assay media. Cells are harvested on day 3 by the addition of 1× cell lysis buffer (Ambion cat #8721). The replicon RNA level is then measured (using, for example, the real time PCR (Taqman assay)). The amplicon is located in 5B. The PCR primers are: 5B.2F, ATGGACAGGCGCCCTGA (SEQ ID NO. 1); 5B.2R, […] (SEQ ID NO. 2); the probe sequence is FAM-labeled CACGCCATGCGCTGCGG (SEQ ID NO. 3). […] Alternatively, to quantitate the absolute amount of replicon RNA, a standard curve can be established by including serially diluted T7 transcripts of replicon RNA in the Taqman assay. […]
(§3) HCV replicon assay data was calculated for various genotypes for selected compounds of the present invention using this method and is provided in the table below.
For orientation: Replicon systems follow genome replication, usually without infectious particles.

The test system of another assay is HCV replicon 1b Y93H. The experiment in a line: Cell-based HCV replicon assay, genotype 1b Y93H. As to conditions: Hepatitis C virus, 72 h, read-out: EC50 1b Y93H. On the procedure:
as §1, §2, §3

The next assay concerns HCV replicon 1b c16. The experiment in a line: Cell-based HCV replicon assay, genotype 1b c16. Particulars: Hepatitis C virus, 72 h; replicon cells, genotype 1b c16, replicon RNA by Taqman on day 3. The protocol: as §1
Replicon cells are seeded at 5000 cells/well in 96-well collagen I-coated Nunc plates in the presence of the test compound. Various concentrations of test compound, typically in 10 serial 2-fold dilutions, are added to the assay mixture, with the starting concentration ranging from 10 μM to 0.001 μM. The final concentration of DMSO should be about 0.5%, and the final concentration of fetal bovine serum should be about 5%, in the assay media. Cells are harvested on day 3 by the addition of 1× cell lysis buffer (Ambion cat #8721). The replicon RNA level is then measured (using, for example, the real time PCR (Taqman assay)). The amplicon is located in 5B. The PCR primers are: 5B.2F, ATGGACAGGCGCCCTGA (SEQ ID NO. 1); 5B.2R, […] (SEQ ID NO. 2); the probe sequence is FAM-labeled CACGCCATGCGCTGCGG (SEQ ID NO. 3). GAPDH RNA is to be used as endogenous control and is amplified in the same reaction as NS5B (multiplex PCR) using the primers and the VIC-labeled probe recommended by the manufacturer (PE Applied Biosystems). The real-time RT-PCR reactions can be run on an ABI PRISM 7900HT Sequence Detection System using the following program: 48° C. for 30 minutes, 95° C. for 10 minutes, 40 cycles of 95° C. for 15 sec, 60° C. for 1 minute. The ΔCT values (CT5B-CTGAPDH) are then plotted against the concentration of test compound and fitted to the sigmoid dose-response model using XLfit4 (MDL). EC50 is defined as the concentration of inhibitor necessary to achieve ΔCT=1 over the projected baseline; EC90 is defined as the concentration necessary to achieve ΔCT=3.2 over the baseline. Alternatively, to quantitate the absolute amount of replicon RNA, a standard curve can be established by including serially diluted T7 transcripts of replicon RNA in the Taqman assay. […]
as §3

The subject of another assay is HCV replicon 1a 1A7. The experiment in a line: Cell-based HCV replicon assay, genotype 1a 1A7. Particulars: Hepatitis C virus, 72 h; replicon cells, genotype 1a 1A7, replicon RNA by Taqman on day 3. The protocol:
as §1, §2, §3

SMILES strings stand for the structures. pEC50: −log10 of the molar value.

The term pEC50 denotes the EC50 on a negative log10 scale, so that one unit is a factor of ten. For the compound `COC(=O)N[C@H](C(=O)N1CCC[C@@H]1c1ncc(-c2ccc(C#Cc3ccc4nc([C@@H]5CCCN5C(=O)[C@@H](NC(=O)OC)C(C)C)[nH]c4c3)cc2)[nH]1)C(C)C` [Compound 56], the pEC50 with HCV replicon 2a JFH is 9.52; in the assay on HCV replicon 1b Y93H it was 8.30; in the assay on HCV replicon 1b c16 it was 10.80; with HCV replicon 1a 1A7, 9.52.
With `COC(=O)N[C@@H](C(=O)N1CCC[C@@H]1c1ncc(-c2ccc(C#Cc3ccc4nc([C@@H]5CCCN5C(=O)[C@H](NC(=O)OC)c5ccccc5)[nH]c4c3)cc2)[nH]1)c1ccccc1` [Compound 57], the pEC50 in the assay with HCV replicon 2a JFH is 10.72; with HCV replicon 1b Y93H, 9.30; in the assay with HCV replicon 1b c16, 12.00; in the assay with HCV replicon 1a 1A7 it was 9.39.
For `CC(C)(C)OC(=O)N1CCC[C@H]1c1ncc(-c2ccc(C#Cc3ccc4nc([C@@H]5CCCN5C(=O)OC(C)(C)C)[nH]c4c3)cc2)[nH]1` [Compound 58], the negative-log EC50 (pEC50) with HCV replicon 1b c16 was 6.60.
